Biological target: T1, breast cancer resistance protein (BCRP) (Homo sapiens, UniProt Q9UNQ0)
T1 sequence (Q9UNQ0 1-655): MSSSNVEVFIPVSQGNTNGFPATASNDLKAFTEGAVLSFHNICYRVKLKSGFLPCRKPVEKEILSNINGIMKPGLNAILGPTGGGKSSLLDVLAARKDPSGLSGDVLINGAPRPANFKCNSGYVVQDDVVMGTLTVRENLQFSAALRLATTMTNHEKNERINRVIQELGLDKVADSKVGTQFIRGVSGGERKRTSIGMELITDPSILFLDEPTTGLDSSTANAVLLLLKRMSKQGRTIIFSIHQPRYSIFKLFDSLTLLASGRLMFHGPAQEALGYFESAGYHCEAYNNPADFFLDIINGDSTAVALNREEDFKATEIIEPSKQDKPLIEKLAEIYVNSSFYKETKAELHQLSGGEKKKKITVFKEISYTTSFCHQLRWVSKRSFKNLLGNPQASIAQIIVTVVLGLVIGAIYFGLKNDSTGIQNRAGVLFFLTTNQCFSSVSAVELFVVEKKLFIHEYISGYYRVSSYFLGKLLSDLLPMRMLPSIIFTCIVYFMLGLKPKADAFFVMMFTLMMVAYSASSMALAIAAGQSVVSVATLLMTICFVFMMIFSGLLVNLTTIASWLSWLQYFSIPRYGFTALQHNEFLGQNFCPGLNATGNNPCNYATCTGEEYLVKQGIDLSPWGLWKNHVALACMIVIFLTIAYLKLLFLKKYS
Experiment: mitoxantrone accumulation in BCRP-overexpressing PLB985 cells, flow cytometry
Type: cell-based

For `COc1cc(N)c(Cl)cc1C(=O)NC1CCN(CCCOc2ccc(F)cc2)CC1OC` (centres unmarked) [cisapride], the IC50 was 400 ± 100 nM.

For `O=C(Nc1c(Cl)cncc1Cl)c1ccc(OC(F)F)c(OCC2CC2)c1` [roflumilast], the IC50 was 900 ± 200 nM.
